Data as given in patent US4284621A, “Agents for protection against light” (Bayer Aktiengesellschaft, priority 1978, dated 1981).
Structures can show the parent of a compound that is named as a salt.

How the values were obtained:
[1] = UV absorption spectral data (wavelength λmax, molar extinction ε, specific extinction E1^1); format: physicochemical; design: Wavelength λmax: unit not given beside the values; settings: for Molar extinction ε: in M-1cm-1
[2] = Solubilities at room temperature (20-25° C.) in groundnut oil and groundnut oil/liquid paraffin 1:9; format: physicochemical
[3] = Table 1, second value, in parentheses

COC(=O)C(C#N)=Cc1cccc(OC)c1 [3-Methoxybenzylidenecyanoacetic acid methyl ester]
Specific extinction E1^1 ([1]; Table 1): 710 | Wavelength λmax ([1]; Table 1): 299 | Molar extinction ε ([1]; Table 1): 15,300

CCOC(=O)C(=Cc1ccc(OC)c(OC)c1)C(=O)OCC [3,4-Dimethoxybenzylidenemalonic acid diethyl ester]
Specific extinction E1^1 ([1]; Table 1): 670 | Wavelength λmax ([1]; Table 1): 308 | Molar extinction ε ([1]; Table 1): 20,500

COc1ccc(C=C(C#N)C(=O)N(CC(C)C)CC(C)C)cc1 [4-Methoxybenzylidenecyanoacetic acid diisobutylamide]
Specific extinction E1^1 ([1]; Table 1): 510 | Wavelength λmax ([1]; Table 1): 325 | Molar extinction ε ([1]; Table 1): 15,900

COc1ccc(C=C(C#N)C(N)=O)cc1 [4-Methoxybenzylidenecyanoacetic acid amide]
Specific extinction E1^1 ([1]; Table 1): 1,200 | Wavelength λmax ([1]; Table 1): 332 | Molar extinction ε ([1]; Table 1): 24,300

COC(=O)C(C#N)=Cc1ccco1 [Furfurylidenecyanoacetic acid methyl ester]
Specific extinction E1^1 ([1]; Table 1): 1,530 | Wavelength λmax ([1]; Table 1): 337 | Molar extinction ε ([1]; Table 1): 27,000

COC(=O)C(C#N)=C(c1ccccc1)c1ccccc1 [α-Cyano-β,β-diphenyl-acrylic acid methyl]
Specific extinction E1^1 ([1]; Table 1): 520 | Molar extinction ε ([1]; Table 1): 14,000

CCOC(=O)C(=Cc1ccc(OC)cc1)C(C)=O [4-Methoxybenzylideneacetoacetic acid ethyl ester]
Specific extinction E1^1 ([1]; Table 1): 770 | Wavelength λmax ([1]; Table 1): 316 | Molar extinction ε ([1]; Table 1): 19,000

COC(=O)C(=Cc1ccc(N(C)C)cc1)C(=O)OC [4-Dimethylaminobenzylidenemalonic acid dimethyl ester]
Specific extinction E1^1 ([1]; Table 1): 1,200 | Wavelength λmax ([1]; Table 1): 375 | Molar extinction ε ([1]; Table 1): 31,400

CCCCCCCCCOC(=O)C(C#N)=Cc1ccc(OC)cc1 [n-Nonyl]
Solubility at room temperature in groundnut oil (%) [2]: 55% | Solubility at room temperature in groundnut oil/liquid paraffin 1:9 (%) [2]: 10% | Specific extinction E1^1 ([1]; Table II): 910 | Wavelength λmax (nm) ([1]; Table II): 341 nm | Molar extinction ε ([1]; Table II): 30,000

COC(=O)C(C#N)=C(C)c1ccc(OC)cc1 [α-Cyano-β-methyl-β-(4-methoxyphenyl)-acrylic acid methyl ester]
Specific extinction E1^1 ([1]; Table 1): 460 | Wavelength λmax ([1]; Table 1): 318 | Molar extinction ε ([1]; Table 1): 10,900

COC(=O)C(C#N)=Cc1cccc(O)c1 [3-Hydroxybenzylidenecyanoacetic acid methyl ester]
Specific extinction E1^1 ([1]; Table 1): 900 | Wavelength λmax ([1]; Table 1): 303 | Molar extinction ε ([1]; Table 1): 18,200

COC(=O)C(C#N)=Cc1cccc(N)c1 [3-Aminobenzylidenecyanic acid methyl ester]
Specific extinction E1^1 ([1]; Table 1): 830 | Wavelength λmax ([1]; Table 1): 310 | Molar extinction ε ([1]; Table 1): 16,800

COC(=O)C(C#N)=Cc1ccc(OC)cc1 [4-Methoxybenzylidenecyanoacetic acid methyl ester]
Specific extinction E1^1 ([1]; Table 1): 1,350 | Wavelength λmax ([1]; Table 1): 340 | Molar extinction ε ([1]; Table 1): 29,300

CCCCCCCCOC(=O)C(C#N)=Cc1ccc(OC)cc1 [n-Octyl, 4-methoxy-benzylidene-cyanoacetic acid n-octyl ester]
Solubility at room temperature in groundnut oil/liquid paraffin 1:9 (%) [2]: 90% | Specific extinction E1^1 ([1]; Table II): 970 | Wavelength λmax (nm) ([1]; Table II): 341 nm | Molar extinction ε ([1]; Table II): 30,500

COc1ccc(C(=O)CC(=O)c2ccc(OC)cc2)cc1 [(3), dianisoylmethane]
Solubility at room temperature in groundnut oil (%) [2]: 1%

CCCCCCCCCCCCOC(=O)C(C#N)=Cc1ccc(OC)cc1 [n-Dodecyl]
Solubility at room temperature in groundnut oil (%) [2]: 14% | Specific extinction E1^1 ([1]; Table II): 770 | Wavelength λmax (nm) ([1]; Table II): 342 nm | Molar extinction ε ([1]; Table II): 28,450

COC(=O)C(C#N)=Cc1ccc(Cl)cc1 [4-Chlorobenzylidenecyanoacetic acid methyl ester]
Specific extinction E1^1 ([1]; Table 1): 940 | Wavelength λmax ([1]; Table 1): 313 | Molar extinction ε ([1]; Table 1): 20,900

COc1ccc(C=C(C(=O)OCC(C)C)C(=O)OCC(C)C)cc1 [4-Methoxybenzylidenemalonic acid diisobutyl ester]
Specific extinction E1^1 ([1]; Table 1): 740 | Wavelength λmax ([1]; Table 1): 312 | Molar extinction ε ([1]; Table 1): 24,800

CCCCCCCOC(=O)C(C#N)=Cc1ccc(OC)cc1 [n-Heptyl]
Solubility at room temperature in groundnut oil (%) [2]: 33% | Solubility at room temperature in groundnut oil/liquid paraffin 1:9 (%) [2]: 7% | Specific extinction E1^1 ([1]; Table II): 940 | Wavelength λmax (nm) ([1]; Table II): 341 nm | Molar extinction ε ([1]; Table II): 28,300

COC(=O)C(C#N)=Cc1ccc(N(C)C)cc1 [4-Dimethylaminobenzylidenecyanoacetic acid methyl ester]
Specific extinction E1^1 ([1]; Table 1): 870 | Wavelength λmax ([1]; Table 1): 421 | Molar extinction ε ([1]; Table 1): 19,900

COc1ccc(C(=O)c2cc(S(=O)(=O)O)c(OC)cc2O)c(O)c1 [(1), sodium salt of 2,2'-dihydroxy-4,4'-dimethoxybenzophenone-5-sulphonic acid]
Specific extinction E1^1 ([1]; Table II): 160 | Wavelength λmax (nm) ([1]; Table II): 330 nm | Molar extinction ε ([1]; Table II): 5,920 | specific extinction (in words, compared with compounds of formula I) ([1]; comparison with compounds of formula I, Table II): significantly lower specific extinction

COC(=O)C(C#N)=Cc1ccc(O)c(OC)c1 [4-Hydroxy-3-methoxybenzylidenecyanoacetic acid methyl ester]
Specific extinction E1^1 ([1]; Table 1): 960 | Wavelength λmax ([1]; Table 1): 366 | Molar extinction ε ([1]; Table 1): 22,400

CN(C)c1ccc(C=C(C(N)=O)C(N)=O)cc1 [4-Dimethylaminobenzylidenemalonic acid diamide]
Specific extinction E1^1 ([1]; Table 1): 870 | Wavelength λmax ([1]; Table 1): 369 | Molar extinction ε ([1]; Table 1): 20,400

4-methoxy-benzylidene-cyanoacetic acid isodecyl ester [iso-Decyl]
Specific extinction E1^1 ([1]; Table II): 790 | Wavelength λmax (nm) ([1]; Table II): 341 nm | Molar extinction ε ([1]; Table II): 27,000

CCCCCOC(=O)C(C#N)=Cc1ccc(OC)cc1 [n-Pentyl]
Solubility at room temperature in groundnut oil (%) [2]: 6-7% | Solubility at room temperature in groundnut oil/liquid paraffin 1:9 (%) [2]: 1.4% | Specific extinction E1^1 ([1]; Table II): 1,050 | Wavelength λmax (nm) ([1]; Table II): 341 nm | Molar extinction ε ([1]; Table II): 28,600

C=C(C)C(=O)Oc1ccc(C=C(C#N)C(=O)OC)cc1 [4-Methacryloxybenzylidenecyanoacetic acid methyl ester]
Specific extinction E1^1 ([1]; Table 1): 1,230 | Wavelength λmax ([1]; Table 1): 312 | Molar extinction ε ([1]; Table 1): 23,000

COC(=O)C(C#N)=Cc1ccc(O)cc1 [4-Hydroxybenzylidenecyanoacetic acid methyl ester]
Specific extinction E1^1 ([1]; Table 1): 1,350 | Wavelength λmax ([1]; Table 1): 348 | Molar extinction ε ([1]; Table 1): 27,300

CCCCOC(=O)C(C#N)=Cc1ccc(OC)cc1 [n-Butyl]
Solubility at room temperature in groundnut oil (%) [2]: 17% | Solubility at room temperature in groundnut oil/liquid paraffin 1:9 (%) [2]: 3% | Specific extinction E1^1 ([1]; Table II): 1,090 | Wavelength λmax (nm) ([1]; Table II): 342 nm | Molar extinction ε ([1]; Table II): 28,300

CCOC(=O)C(=Cc1ccc(O)c(OC)c1)C(=O)OCC [4-Hydroxy-3-methoxybenzylidenemalonic acid diethyl ester]
Specific extinction E1^1 ([1]; Table 1): 630 | Wavelength λmax ([1]; Table 1): 332 | Molar extinction ε ([1]; Table 1): 20,750

COC(=O)C(C#N)=Cc1ccccc1OC [2-Methoxybenzylidenecyanoacetic acid methyl ester]
Specific extinction E1^1 ([1]; Table 1): 470 | Wavelength λmax ([1]; Table 1): 354 | Molar extinction ε ([1]; Table 1): 10,300 | Molar extinction ε (value in parentheses) [1, 3]: 12,100 | Specific extinction E1^1 (value in parentheses) [1, 3]: 560 | Wavelength λmax (value in parentheses) [1, 3]: 297

CCOC(=O)C(=Cc1cccc(O)c1)C(=O)OCC [3-Hydroxybenzylidenemalonic acid diethyl ester]
Specific extinction E1^1 ([1]; Table 1): 770 | Wavelength λmax ([1]; Table 1): 282 | Molar extinction ε ([1]; Table 1): 20,300

CCOC(=O)C(=Cc1ccc(O)c(OC)c1)C(C)=O [4-Hydroxy-3-methoxybenzylideneacetoacetic acid ethyl ester]
Specific extinction E1^1 ([1]; Table 1): 690 | Wavelength λmax ([1]; Table 1): 340 | Molar extinction ε ([1]; Table 1): 18,200

COC(=O)C(C#N)=Cc1ccc(OC)c(OC)c1 [3,4-Dimethoxybenzylidenecyanoacetic acid methyl ester]
Specific extinction E1^1 ([1]; Table 1): 970 | Wavelength λmax ([1]; Table 1): 360 | Molar extinction ε ([1]; Table 1): 24,000

CCCCCCCCCCOC(=O)C(C#N)=Cc1ccc(OC)cc1 [n-Decyl, 4-methoxy-benzylidene-cyanoacetic acid n-decyl ester]
Specific extinction E1^1 ([1]; Table II): 810 | Wavelength λmax (nm) ([1]; Table II): 341 nm | Molar extinction ε ([1]; Table II): 27,700

COC(=O)C(C#N)=Cc1ccc(C)cc1 [4-Methylbenzylidenecyanoacetic acid methyl ester]
Specific extinction E1^1 ([1]; Table 1): 1,230 | Wavelength λmax ([1]; Table 1): 317 | Molar extinction ε ([1]; Table 1): 25,000
